Data on eight molecules can be found in PubChem BioAssay (NCI).

The structures appear in SMILES notation. Several values for one entry are separate records, joined by “and”; a condition that tells them apart may be missing. Equal values may be shown once.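 1) Cells in 96-well plates. 2) Compound, 48 h, 5 concentrations. 3) Linear interpolation between surrounding doses. 4) Unreached endpoint = highest concentration. Here, GI50 denotes the concentration required for 50% inhibition of growth. TGI: total growth inhibition.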

Among the test systems are HCC-2998 colon; MALME-3M melanoma; NCI-H23 lung; NCI-H460 lung; SF-268 CNS; SF-539 CNS; SN12C renal; SR leukemia; SW-620 colon; UACC-62 melanoma.
What all share (assay): NCI-60 cell line screen, 48 h

Regarding `COc1ccc(C(=O)c2cc3c(N)c(C(=O)Nc4ccc(C)cc4)sc3nc2C)cc1`, the GI50 in the assay with HCC-2998 colon is 4.01 µM; with MALME-3M melanoma it was 4.46 µM; with NCI-H23 lung it was 6.24 µM; in the assay with NCI-H460 lung it was 2.99 µM; in the assay with SF-268 CNS, 5.66 µM; in the assay on SF-539 CNS it was 2.5 µM. In addition, the GI50 in the assay with SN12C renal was 6.93 µM; with SR leukemia, 0.525 µM; in the assay with SW-620 colon it was 3.61 µM; in the assay on UACC-62 melanoma, 12.2 µM. In addition, the TGI was > 100 µM with HCC-2998 colon; 39.3 µM with MALME-3M melanoma; 44 µM in the assay on NCI-H23 lung; 14.2 µM with NCI-H460 lung; 48.7 µM with SF-268 CNS; 9.38 µM in the assay on SF-539 CNS. For the same molecule, the TGI in the assay with SN12C renal, in the assay with SR leukemia, in the assay with SW-620 colon and in the assay on UACC-62 melanoma was > 100 µM throughout.

Regarding `CC(C)(C)[Si](C)(C)OC1[C@@H](O[Si](C)(C)C(C)(C)C)[C@@H](CNC(=O)NC(=O)CCl)O[C@H]1n1cnc2c(NC(=O)Nc3ccccc3)ncnc21` (some centres not stated), the GI50 in the assay with HCC-2998 colon is 0.967 µM; with MALME-3M melanoma it was 0.796 µM; in the assay on NCI-H23 lung, 0.756 µM; in the assay with NCI-H460 lung, 0.859 µM; with SF-268 CNS it was 0.665 µM; in the assay on SF-539 CNS it was 0.837 µM. Further, the GI50 was 0.786 µM in the assay on SN12C renal, 0.117 µM in the assay on SR leukemia, 0.441 µM with SW-620 colon and 0.793 µM in the assay with UACC-62 melanoma. In addition, the TGI in the assay with HCC-2998 colon is 2.06 µM; in the assay with MALME-3M melanoma, 1.62 µM; in the assay with NCI-H23 lung it was 1.84 µM; in the assay on NCI-H460 lung it was 1.74 µM; in the assay on SF-268 CNS it was 1.44 µM; in the assay with SF-539 CNS, 1.58 µM. Further, the TGI turned out to be 1.69 µM in the assay with SN12C renal, 0.446 µM with SR leukemia, 1.36 µM in the assay with SW-620 colon and 1.6 µM in the assay with UACC-62 melanoma.

Consider `Cc1sc2c(c1C)C(c1ccc(Cl)cc1)=N[C@@H](CC(=O)OC(C)(C)C)c1nnc(C)n1-2`, for which the GI50 with HCC-2998 colon is 0.379 µM and 0.291 µM; in the assay with MALME-3M melanoma it was 11.4 µM and 4.84 µM; in the assay with NCI-H23 lung, 0.45 µM and 0.28 µM; in the assay on NCI-H460 lung, 1.55 µM and 0.603 µM; in the assay on SF-268 CNS, 11.5 µM and 4.73 µM; with SF-539 CNS it was 0.639 µM and 0.462 µM. In addition, the GI50 with SN12C renal is 8.65 µM and 1.95 µM; in the assay with SR leukemia, 0.229 µM and 0.0451 µM; with SW-620 colon, 10.9 µM and 4.09 µM; with UACC-62 melanoma, 0.107 µM and 0.0685 µM. Also, the TGI was 13.8 µM and 14 µM with HCC-2998 colon; 26.4 µM and 22.1 µM with MALME-3M melanoma; 18.7 µM and 18.6 µM with NCI-H23 lung; 22.6 µM and 19 µM in the assay on NCI-H460 lung; 26.2 µM and 21.8 µM in the assay on SF-268 CNS; 19.4 µM and 17.9 µM in the assay on SF-539 CNS. The TGI in the assay on SN12C renal was 25.9 µM and 22 µM; in the assay on SR leukemia, 18.7 µM and 17.1 µM; with SW-620 colon, 28.1 µM and 22.9 µM; in the assay on UACC-62 melanoma, 20.3 µM and 15.8 µM.

On to `CN1C(=O)N[C@H]2[C@@H]3NC(=O)c4ccc(Br)n4[C@@H]3C[C@]21O`, for which the GI50 in the assay with HCC-2998 colon was 0.13 µM; with MALME-3M melanoma, 0.103 µM; with NCI-H23 lung it was 0.0968 µM; in the assay on NCI-H460 lung, 0.0403 µM; in the assay with SF-268 CNS, 0.115 µM; in the assay with SF-539 CNS, 0.0825 µM. Further, the GI50 was 0.106 µM in the assay on SN12C renal, 0.0335 µM in the assay with SR leukemia, 0.116 µM with SW-620 colon and 0.0861 µM in the assay with UACC-62 melanoma. For the same molecule, the TGI in the assay on HCC-2998 colon came out at 1.75 µM; with MALME-3M melanoma, 0.731 µM; in the assay with NCI-H23 lung it was 1.42 µM; in the assay with NCI-H460 lung it was 1.5 µM; with SF-268 CNS, 2.63 µM; with SF-539 CNS, 0.447 µM. Besides, the TGI with SN12C renal was 2.19 µM; in the assay with SR leukemia, 0.639 µM; with SW-620 colon it was 12.5 µM; in the assay on UACC-62 melanoma, 1.18 µM.

Regarding `CC[N+]1(C)CCC(O)(c2ccc(OC)cc2)C(C(=O)c2ccc(OC)cc2)C1` (configuration not stated), the TGI was 34.8 µM in the assay with HCC-2998 colon; 17.2 µM with MALME-3M melanoma; 36.8 µM with NCI-H23 lung; 45 µM with NCI-H460 lung; 56 µM in the assay on SF-268 CNS; 32 µM in the assay with SF-539 CNS. The TGI in the assay on SN12C renal is 32.9 µM; in the assay on SR leukemia, 5.61 µM; with SW-620 colon it was 4.82 µM; in the assay with UACC-62 melanoma, 38.4 µM.

For `C=C1CCC2C(C)(COC(=O)CC)C(OC(=O)CC)CCC2(C)C1C/C=C1/C(=O)OCC1OC(=O)CC` (configuration not stated), the GI50 in the assay on HCC-2998 colon is 4.25 µM; in the assay with MALME-3M melanoma, 2.08 µM; in the assay on NCI-H23 lung it was 3.39 µM; with NCI-H460 lung, 1.98 µM; with SF-268 CNS, 1.91 µM; in the assay with SF-539 CNS, 1.84 µM. Also, the GI50 is 2.63 µM in the assay with SN12C renal, 1.58 µM in the assay with SR leukemia, 1.17 µM in the assay on SW-620 colon and 2.23 µM with UACC-62 melanoma. Further, the TGI is 13.9 µM with HCC-2998 colon; 3.99 µM with MALME-3M melanoma; 13.2 µM in the assay with NCI-H23 lung; 3.59 µM in the assay on NCI-H460 lung; 3.39 µM with SF-268 CNS; 4.17 µM in the assay with SF-539 CNS. For the same molecule, the TGI with SN12C renal amounted to 10.1 µM; in the assay with SR leukemia it was 5.28 µM; in the assay on SW-620 colon, 2.44 µM; with UACC-62 melanoma, 5.2 µM.

For the molecule `COc1ccc(-c2c3c(n(C4OC(COC(C)=O)C(OC(C)=O)C(OC(C)=O)C4OC(C)=O)c(=S)c2C#N)CC(C)(C)CC3=O)cc1` (configuration not stated), the TGI in the assay with HCC-2998 colon was > 100 µM; in the assay with MALME-3M melanoma, > 100 µM; in the assay with NCI-H23 lung, > 100 µM; in the assay with NCI-H460 lung, > 100 µM; in the assay with SF-268 CNS, > 100 µM; in the assay on SF-539 CNS, 58.6 µM and > 100 µM. The TGI in the assay on SN12C renal was > 100 µM; with SR leukemia, 74.7 µM and > 100 µM; in the assay with SW-620 colon, > 100 µM; in the assay with UACC-62 melanoma, > 100 µM. For the same molecule, the GI50 was 39.9 µM and > 100 µM in the assay on NCI-H23 lung; 38.9 µM and > 100 µM with SF-268 CNS.

`CCC(CNc1cc(OC)cc2cccnc12)NC1CCCCC1` (configuration not stated): the GI50 in the assay with HCC-2998 colon was 19.3 µM; in the assay on MALME-3M melanoma, 17.2 µM; in the assay with NCI-H23 lung it was 51.3 µM; in the assay on NCI-H460 lung, 16.8 µM; with SF-268 CNS, 33.2 µM; in the assay on SF-539 CNS, 56.8 µM. The GI50 in the assay on SN12C renal is > 100 µM; in the assay on SR leukemia, 24.5 µM; in the assay with SW-620 colon it was 19.4 µM; in the assay with UACC-62 melanoma, 40.1 µM. Moreover, the TGI with HCC-2998 colon is 41.4 µM; in the assay with MALME-3M melanoma it was 34.8 µM; in the assay on NCI-H23 lung, > 100 µM; with NCI-H460 lung, 41 µM; in the assay with SF-268 CNS it was > 100 µM; in the assay on SF-539 CNS it was > 100 µM. The TGI is > 100 µM with SN12C renal, 96.1 µM in the assay on SR leukemia, 56.7 µM with SW-620 colon and > 100 µM with UACC-62 melanoma.
